Results reported in ChEMBL document CHEMBL1155906, “Structural modifications of N-arylamide oxadiazoles: Identification of N-arylpiperidine oxadiazoles as potent and selective agonists of CB2” (Bioorg Med Chem Lett, 2008).
Active and inactive are the calls of the source. The rule behind the calls is not given here.

Tests used:
Homo sapiens = species on record: Homo sapiens; experiment: Selectivity for human CB2 receptor over human CB1 receptor by on Eu-GTP binding assay
Cannabinoid receptor 2 [1] = target: T1, Cannabinoid receptor 2 (Homo sapiens, UniProt P34972); experiment: Agonist activity at human CB2 receptor expressed in insect Sf9 cells assessed as effect on Eu-GTP binding
T1 sequence (P34972 whole entry): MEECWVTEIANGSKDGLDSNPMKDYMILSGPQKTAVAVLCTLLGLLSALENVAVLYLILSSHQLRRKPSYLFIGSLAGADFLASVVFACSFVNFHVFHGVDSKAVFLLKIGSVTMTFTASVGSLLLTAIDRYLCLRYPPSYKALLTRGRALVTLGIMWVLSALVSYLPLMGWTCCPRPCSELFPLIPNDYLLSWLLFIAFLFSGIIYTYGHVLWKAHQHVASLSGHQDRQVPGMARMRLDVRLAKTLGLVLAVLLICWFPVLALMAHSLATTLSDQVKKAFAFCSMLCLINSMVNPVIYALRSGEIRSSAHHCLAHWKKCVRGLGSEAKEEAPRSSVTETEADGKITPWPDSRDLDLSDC

Cannabinoid receptor 2 [2] = target: T1, Cannabinoid receptor 2; experiment: Agonist activity at human CB2 receptor expressed in insect Sf9 cells assessed as effect on Eu-GTP binding relative to CP-55940
Cannabinoid receptor 1 [3] = target: T2, Cannabinoid receptor 1 (Homo sapiens, UniProt P21554); experiment: Agonist activity at human CB1 receptor expressed in insect Sf9 cells assessed as effect on Eu-GTP binding
T2 sequence (P21554 whole entry): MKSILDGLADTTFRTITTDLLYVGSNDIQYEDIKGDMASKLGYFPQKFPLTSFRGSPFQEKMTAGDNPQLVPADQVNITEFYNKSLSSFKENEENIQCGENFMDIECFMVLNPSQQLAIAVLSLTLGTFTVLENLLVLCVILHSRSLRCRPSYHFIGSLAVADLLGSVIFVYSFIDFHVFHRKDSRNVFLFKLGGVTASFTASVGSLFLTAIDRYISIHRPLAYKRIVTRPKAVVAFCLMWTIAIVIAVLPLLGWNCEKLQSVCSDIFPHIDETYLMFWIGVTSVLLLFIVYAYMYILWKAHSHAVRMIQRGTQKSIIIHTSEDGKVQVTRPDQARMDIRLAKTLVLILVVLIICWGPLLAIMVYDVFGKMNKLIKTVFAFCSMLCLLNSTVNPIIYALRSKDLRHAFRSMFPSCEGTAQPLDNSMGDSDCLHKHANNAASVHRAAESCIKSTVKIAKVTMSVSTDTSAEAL

Cannabinoid receptor 1 [4] = target: T2, Cannabinoid receptor 1; experiment: Agonist activity at human CB1 receptor expressed in insect Sf9 cells assessed as effect on Eu-GTP binding relative to CP-55940
[5] = Metabolic stability in rat liver microsome assessed as intrinsic clearance; type: ADME; conditions: liver microsomes
[6] = Metabolic stability in human liver microsome assessed as intrinsic clearance; type: ADME; conditions: liver microsomes
Cannabinoid receptor 2 [7] = target: T1, Cannabinoid receptor 2; experiment: Agonist activity at human CB2 receptor assessed as inhibition of forskolin-induced increase in intracellular cAMP; type: functional, cell-based
Cannabinoid receptor 2 [8] = target: T1, Cannabinoid receptor 2; experiment: Agonist activity at human CB2 receptor assessed as inhibition of forskolin-induced increase in intracellular cAMP relative to CP-55940; type: functional, cell-based
Cannabinoid receptor 1 [9] = target: T2, Cannabinoid receptor 1; experiment: Agonist activity at human CB1 receptor assessed as inhibition of forskolin-induced increase in intracellular cAMP; type: functional, cell-based
Cannabinoid receptor 1 [10] = target: T2, Cannabinoid receptor 1; experiment: Agonist activity at human CB1 receptor assessed as inhibition of forskolin-induced increase in intracellular cAMP relative to CP-55940; type: functional, cell-based
Cannabinoid receptor 1 [11] = target: T2, Cannabinoid receptor 1; experiment: Agonist activity at human CB1 receptor expressed in insect Sf9 cells assessed as effect on Eu-GTP binding at 10 uM
Cannabinoid receptor 2 [12] = target: T1, Cannabinoid receptor 2; experiment: Agonist activity at human CB2 receptor expressed in insect Sf9 cells assessed as effect on Eu-GTP binding at 10 uM
[13] = Clearance in iv dosed rat; type: ADME, organism-based; conditions: in vivo

SMILES	Selectivity (Homo sapiens)	EC50 (Cannabinoid receptor 2 [1])	Emax (Cannabinoid receptor 2 [2])	EC50 (Cannabinoid receptor 1 [3])	Emax (Cannabinoid receptor 1 [4])	microsomal CLint [5]	microsomal CLint [6]	EC50 (Cannabinoid receptor 2 [7])	Emax (Cannabinoid receptor 2 [8])	EC50 (Cannabinoid receptor 1 [9])	Emax (Cannabinoid receptor 1 [10])	Activity (Cannabinoid receptor 1 [11])	Activity (Cannabinoid receptor 2 [12])	clearance [13]
Fc1ccc(-c2noc(CCCNc3cnc4ccccc4c3)n2)c(Cl)c1	> 200	11 nM	104%	472 nM	103%	614 µL/min/mg	179 µL/min/mg	–	–	–	–	–	–	–
CC1(C)CCCc2cc(N3CCC(c4nc(-c5ccc(F)cc5Cl)no4)CC3)cnc21	–	32 nM	108%	722 nM	93%	> 399 µL/min/mg	380 µL/min/mg	–	–	–	–	–	–	–
Fc1ccc(-c2noc(C[C@H]3CCN(c4cnc5ccccc5c4)C3)n2)c(Cl)c1	–	140 nM	109%	1690 nM	24%	579 µL/min/mg	215 µL/min/mg	–	–	–	–	–	–	–
CC(C)(CCc1nc(-c2ccc(F)cc2Cl)no1)Nc1cnc2ccccc2c1	> 200	53 nM	52%	1300 nM	70%	775 µL/min/mg	429 µL/min/mg	50 nM	93%	> 2000 nM	46%	–	–	–
Fc1ccc(-c2noc([C@H]3CC[C@@H](Nc4cnc5ccccc5c4)C3)n2)c(Cl)c1 (racemic)	–	1600 nM	77%	–	4%	–	–	–	–	–	–	inactive	–	–
Fc1ccc(-c2noc(C[C@@H]3CCN(c4cnc5ccccc5c4)C3)n2)c(Cl)c1	–	86 nM	116%	1270 nM	46%	426 µL/min/mg	215 µL/min/mg	> 2000 nM	23%	> 2000 nM	3%	–	–	–
c1ccc2ncc(N3CCC(c4nc(-c5ccncc5)no4)CC3)cc2c1	–	313 nM	53%	–	8%	–	–	–	–	–	–	inactive	–	–
Fc1ccc(-c2noc([C@H]3C[C@@H]3CNc3cnc4ccccc4c3)n2)c(Cl)c1 (racemic)	–	99 nM	110%	–	8%	193 µL/min/mg	69 µL/min/mg	> 2000 nM	0%	> 2000 nM	1%	inactive	–	–
Clc1ccc(-c2noc(C3CCN(c4cnc5ccccc5c4)CC3)n2)cc1	–	1780 nM	26%	2620 nM	26%	–	–	–	–	–	–	–	–	–
Fc1ccc(-c2noc(C3CCN(c4cnc5ccc(OC(F)(F)F)cc5c4)CC3)n2)c(Cl)c1	–	3 nM	110%	419 nM	33%	18 µL/min/mg	28 µL/min/mg	–	–	–	–	–	–	–
O=C(O)CCc1nc(-c2ccc(F)cc2Cl)no1	> 200	–	10%	–	0.3%	–	–	–	–	–	–	inactive	inactive	–
Fc1ccc(-c2noc(C3CCN(c4cnc5ccccc5c4)CC3)n2)c(Cl)c1	–	89 nM	101%	3030 nM	36%	80 µL/min/mg	92 µL/min/mg	17 nM	95%	> 1000 nM	17%	–	–	–
Fc1ccccc1-c1noc(C2CCN(c3cnc4ccccc4c3)CC2)n1	–	1550 nM	89%	–	8%	–	–	–	–	–	–	inactive	–	–
Clc1ccc(-c2noc(C3CCN(c4cnc5ccccc5c4)CC3)n2)c(Cl)c1	–	80 nM	99%	951 nM	27%	43 µL/min/mg	58 µL/min/mg	–	–	–	–	–	–	–
Fc1ccc(-c2noc(C3CCN(c4ccc(Cl)c(C(F)(F)F)c4)CC3)n2)c(Cl)c1	–	376 nM	93%	–	2%	–	–	–	–	–	–	inactive	–	–
Fc1ccc(-c2noc(C3CCN(c4cnc5c(C(F)(F)F)cccc5c4)CC3)n2)c(Cl)c1	–	16 nM	106%	15 nM	34%	54 µL/min/mg	23 µL/min/mg	–	–	–	–	–	–	–
Clc1cnccc1-c1noc(C2CCN(c3cnc4ccccc4c3)CC2)n1	–	24 nM	103%	96 nM	23%	187 µL/min/mg	251 µL/min/mg	–	–	–	–	–	–	–
c1ccc2ncc(N3CCC(c4nc(C5CCCCC5)no4)CC3)cc2c1	–	26 nM	113%	600 nM	105%	185 µL/min/mg	283 µL/min/mg	–	–	–	–	–	–	–
O=C(NCCc1nc(-c2ccc(F)cc2Cl)no1)c1cnc2ccccc2c1	> 200	1550 nM	87%	–	-1%	–	–	–	–	–	–	inactive	–	–
Fc1ccc(-c2noc([C@@H]3CCC[C@H]3Nc3cnc4ccccc4c3)n2)c(Cl)c1 (racemic)	–	465 nM	73%	2230 nM	39%	–	–	–	–	–	–	–	–	–
Fc1ccc(-c2noc(C3CCN(c4ccnc5ccccc45)CC3)n2)c(Cl)c1	–	2860 nM	35%	–	2%	–	–	–	–	–	–	inactive	–	–
CC(C)c1noc(C2CCN(c3cnc4ccccc4c3)CC2)n1	–	1440 nM	38%	–	8%	–	–	–	–	–	–	inactive	–	–
CC(CCc1nc(-c2ccc(F)cc2Cl)no1)Nc1cnc2ccccc2c1 (racemic)	> 200	15 nM	112%	1560 nM	69%	> 399 µL/min/mg	142 µL/min/mg	–	–	–	–	–	–	–
CC(C)n1ccc2cc(N3CCC(c4nc(-c5ccc(F)cc5Cl)no4)CC3)cnc21	–	340 nM	88%	–	13%	–	–	–	–	–	–	inactive	–	–
O=C(CCc1nc(-c2ccc(F)cc2Cl)no1)Nc1cnc2ccccc2c1	> 200	2 nM	115%	403 nM	51%	126 µL/min/mg	49 µL/min/mg	5 nM	98%	559 nM	49%	–	–	95 mL/min/kg
Fc1ccc(-c2noc(C3CCN(c4cnc5c(c4)CCCC5)CC3)n2)c(Cl)c1	–	19 nM	113%	910 nM	60%	130 µL/min/mg	95 µL/min/mg	–	–	–	–	–	–	–
